Data on one compound can be found in PubChem BioAssay AID504875 (The Scripps Research Institute Molecular Screening Center, 2011).

The assay relates to cell viability, ATP luminescence (cytotoxicity counter-screen). Description: cytotoxicity of S1P4 agonist candidates, late-stage follow-up, cytotoxicity control for S1P4 agonist project, cell-based, luminescence, dose response, set 2, assay provider (AID 504875).

The source made the active and inactive calls. How the calls were made is not given here.

In general, CC50 refers to the concentration giving 50% cytotoxicity. For `COCCN=C1S/C(=C\c2cc(C)n(-c3ccc(F)cc3F)c2C)C(=O)N1C`, the CC50 is > 10 µM (inactive).
